Experimental data as given in ChEMBL document CHEMBL4673373, “Discovery and optimization of substituted oxalamides as novel heme-displacing IDO1 inhibitors” (Bioorg Med Chem Lett, 2021).

Columns and labels:
[1] = AUC(0 to 8 hrs) in mouse at 10 mg/kg, po; type: ADME, organism-based; design: route oral, time 8 hrs, dose 10 mg/kg; conditions: in vivo
[2] = Metabolic stability in human liver microsomes assessed as intrinsic clearance; type: ADME, Microsome; conditions: read-out: CLH
[3] = Metabolic stability in mouse liver microsomes assessed as intrinsic clearance; type: ADME, Microsome; conditions: read-out: CLH
[4] = target: T1, Indoleamine 2,3-dioxygenase 1 (Homo sapiens, UniProt P14902); experiment: Inhibition of IDO1 in human SKOV3 cells; type: cell-based, SK-OV-3
Target sequence in this assay (P14902 whole entry): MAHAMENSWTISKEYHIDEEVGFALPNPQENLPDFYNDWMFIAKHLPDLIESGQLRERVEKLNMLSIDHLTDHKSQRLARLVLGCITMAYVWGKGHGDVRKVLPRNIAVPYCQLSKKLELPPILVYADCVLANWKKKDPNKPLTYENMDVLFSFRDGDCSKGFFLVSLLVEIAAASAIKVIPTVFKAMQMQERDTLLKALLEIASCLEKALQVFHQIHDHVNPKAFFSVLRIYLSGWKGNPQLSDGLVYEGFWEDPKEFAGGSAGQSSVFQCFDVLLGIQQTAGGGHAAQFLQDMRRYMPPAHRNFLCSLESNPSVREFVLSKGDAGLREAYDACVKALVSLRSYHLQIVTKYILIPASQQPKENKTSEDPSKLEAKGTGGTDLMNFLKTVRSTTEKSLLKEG

[5] = target: Tryptophan 2,3-dioxygenase (Homo sapiens, UniProt P48775); experiment: Inhibition of TDO in HEK cells; type: cell-based
[6] = target: T1, Indoleamine 2,3-dioxygenase 1; experiment: Inhibition of IDO1 (unknown origin) by enzymatic assay
Target sequence in this assay (P14902 whole entry): as above

hERG (KCNH2) [7] = target: T2, hERG (KCNH2) (Homo sapiens, UniProt Q12809); experiment: Inhibition of human ERG at 10 uM relative to control
[8] = target: T1, Indoleamine 2,3-dioxygenase 1; experiment: Binding affinity to IDO1 (unknown origin) assessed as change in melting temperature at 5 uM by thermal shift assay
Target sequence in this assay (P14902 whole entry, looked up): as the sequence (P14902 whole entry) above

hERG (KCNH2) [9] = target: T2, hERG (KCNH2); experiment: Inhibition of human ERG assessed as reduction in channel tail current at 10 uM by patch clamp assay relative to control
[10] = Plasma protein binding in human; type: ADME, cell-free; conditions: read-out: PPB (converted)
[11] = Cmax in mouse at 10 mg/kg, po; type: ADME, organism-based; design: route oral, dose 10 mg/kg; conditions: in vivo
[12] = Plasma protein binding in mouse; type: ADME, cell-free; conditions: read-out: PPB (converted)
[13] = Half life in mouse at 10 mg/kg, po; type: ADME, organism-based; conditions: in vivo
Cytochrome P450 2C9 = Cytochrome P450 2C9 (Homo sapiens, UniProt P11712); experiment: Inhibition of CYP2C9 (unknown origin); type: ADME
Cytochrome P450 2D6 = Cytochrome P450 2D6 (Homo sapiens, UniProt P10635); experiment: Inhibition of CYP2D6 (unknown origin); type: ADME
Cytochrome P450 2C8 = target: T3, Cytochrome P450 2C8 (Homo sapiens, UniProt P10632); experiment: Inhibition of CYP2C8 (unknown origin); type: ADME
T3 sequence (P10632 whole entry): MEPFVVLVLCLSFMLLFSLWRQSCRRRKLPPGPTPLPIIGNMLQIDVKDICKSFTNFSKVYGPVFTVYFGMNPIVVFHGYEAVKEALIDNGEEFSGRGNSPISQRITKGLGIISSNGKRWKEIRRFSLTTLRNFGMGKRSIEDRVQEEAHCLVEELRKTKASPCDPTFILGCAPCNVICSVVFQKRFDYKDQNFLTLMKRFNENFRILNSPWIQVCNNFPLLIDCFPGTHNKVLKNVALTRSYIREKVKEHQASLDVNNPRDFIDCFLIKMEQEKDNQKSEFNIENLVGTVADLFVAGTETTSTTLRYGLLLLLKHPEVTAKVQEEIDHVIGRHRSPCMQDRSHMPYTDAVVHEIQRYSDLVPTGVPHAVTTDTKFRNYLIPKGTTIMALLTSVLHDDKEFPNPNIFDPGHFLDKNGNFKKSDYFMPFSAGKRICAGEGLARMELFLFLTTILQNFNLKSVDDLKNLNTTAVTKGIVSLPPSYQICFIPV

[14] = target: T1, Indoleamine 2,3-dioxygenase 1; experiment: Inhibition of IDO1 in human whole blood; type: tissue-based
Target sequence in this assay (P14902 whole entry): as the sequence (P14902 whole entry) above

Sequence of Tryptophan 2,3-dioxygenase (P48775 whole entry): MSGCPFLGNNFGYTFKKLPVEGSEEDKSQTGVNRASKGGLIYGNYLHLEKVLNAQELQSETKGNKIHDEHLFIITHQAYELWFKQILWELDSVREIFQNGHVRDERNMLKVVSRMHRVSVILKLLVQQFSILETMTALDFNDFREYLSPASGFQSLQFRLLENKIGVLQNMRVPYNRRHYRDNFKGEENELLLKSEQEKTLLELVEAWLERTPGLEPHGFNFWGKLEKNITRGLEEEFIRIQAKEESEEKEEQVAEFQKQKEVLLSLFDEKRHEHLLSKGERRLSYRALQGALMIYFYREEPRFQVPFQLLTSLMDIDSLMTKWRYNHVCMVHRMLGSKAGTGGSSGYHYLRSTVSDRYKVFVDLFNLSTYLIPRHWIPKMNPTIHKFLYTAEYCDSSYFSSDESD
T2 sequence (Q12809 whole entry): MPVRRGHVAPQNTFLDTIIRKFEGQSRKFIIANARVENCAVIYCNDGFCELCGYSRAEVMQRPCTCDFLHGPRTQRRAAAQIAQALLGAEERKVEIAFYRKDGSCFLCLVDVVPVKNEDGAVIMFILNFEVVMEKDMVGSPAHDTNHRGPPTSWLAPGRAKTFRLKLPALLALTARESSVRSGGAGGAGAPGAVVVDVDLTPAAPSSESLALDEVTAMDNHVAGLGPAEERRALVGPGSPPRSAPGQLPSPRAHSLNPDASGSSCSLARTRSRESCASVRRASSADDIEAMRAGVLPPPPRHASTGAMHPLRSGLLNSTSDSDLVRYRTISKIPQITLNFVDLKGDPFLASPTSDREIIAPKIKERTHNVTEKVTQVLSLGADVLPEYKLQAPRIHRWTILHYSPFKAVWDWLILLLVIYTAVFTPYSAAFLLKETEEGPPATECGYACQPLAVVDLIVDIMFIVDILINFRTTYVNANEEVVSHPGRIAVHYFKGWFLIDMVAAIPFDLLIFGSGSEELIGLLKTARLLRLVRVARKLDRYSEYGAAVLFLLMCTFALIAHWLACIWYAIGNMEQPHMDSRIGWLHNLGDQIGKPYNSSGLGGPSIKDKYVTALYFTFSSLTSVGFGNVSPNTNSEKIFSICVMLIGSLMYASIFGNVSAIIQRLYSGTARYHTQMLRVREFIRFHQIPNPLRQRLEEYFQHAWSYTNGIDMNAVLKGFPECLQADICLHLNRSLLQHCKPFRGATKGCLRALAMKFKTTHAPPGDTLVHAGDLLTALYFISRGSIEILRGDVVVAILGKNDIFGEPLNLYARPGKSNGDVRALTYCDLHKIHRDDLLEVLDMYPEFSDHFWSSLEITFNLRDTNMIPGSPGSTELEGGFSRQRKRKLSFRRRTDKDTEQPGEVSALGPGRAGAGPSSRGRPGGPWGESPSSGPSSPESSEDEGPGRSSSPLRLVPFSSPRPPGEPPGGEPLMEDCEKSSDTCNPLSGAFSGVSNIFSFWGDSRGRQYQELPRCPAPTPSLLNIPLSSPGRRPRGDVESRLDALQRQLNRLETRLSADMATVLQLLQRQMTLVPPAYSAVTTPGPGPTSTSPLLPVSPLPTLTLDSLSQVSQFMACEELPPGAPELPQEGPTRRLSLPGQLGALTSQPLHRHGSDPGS
Sequence of Cytochrome P450 2C9 (P11712 whole entry): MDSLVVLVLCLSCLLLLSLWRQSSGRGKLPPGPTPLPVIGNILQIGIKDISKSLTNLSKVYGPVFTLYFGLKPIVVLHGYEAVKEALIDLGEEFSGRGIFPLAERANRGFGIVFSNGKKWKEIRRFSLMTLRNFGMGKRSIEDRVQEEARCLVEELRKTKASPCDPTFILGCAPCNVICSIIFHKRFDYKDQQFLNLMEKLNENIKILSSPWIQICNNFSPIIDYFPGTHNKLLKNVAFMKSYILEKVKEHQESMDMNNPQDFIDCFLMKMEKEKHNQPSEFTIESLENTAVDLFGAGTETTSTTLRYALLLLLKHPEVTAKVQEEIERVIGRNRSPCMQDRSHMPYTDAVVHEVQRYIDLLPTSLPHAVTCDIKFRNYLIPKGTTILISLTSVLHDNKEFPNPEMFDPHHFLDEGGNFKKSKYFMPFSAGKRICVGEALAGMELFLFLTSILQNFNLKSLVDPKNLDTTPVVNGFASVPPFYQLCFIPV
Sequence of Cytochrome P450 2D6 (P10635 whole entry): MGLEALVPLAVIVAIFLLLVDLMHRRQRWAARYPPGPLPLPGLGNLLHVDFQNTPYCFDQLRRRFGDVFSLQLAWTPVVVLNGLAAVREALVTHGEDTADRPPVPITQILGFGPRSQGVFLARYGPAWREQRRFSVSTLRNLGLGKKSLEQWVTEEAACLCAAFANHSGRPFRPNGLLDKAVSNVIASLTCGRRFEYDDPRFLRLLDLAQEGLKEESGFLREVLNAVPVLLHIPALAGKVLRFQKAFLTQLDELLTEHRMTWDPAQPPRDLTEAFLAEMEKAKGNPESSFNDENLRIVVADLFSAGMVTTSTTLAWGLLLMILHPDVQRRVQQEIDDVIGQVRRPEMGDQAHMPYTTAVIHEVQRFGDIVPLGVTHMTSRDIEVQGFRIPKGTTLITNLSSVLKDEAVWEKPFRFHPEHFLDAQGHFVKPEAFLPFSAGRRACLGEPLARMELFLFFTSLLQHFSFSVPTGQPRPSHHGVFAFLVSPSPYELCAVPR

SMILES	microsomal CLint [2] [µL/min/mg]	microsomal CLint [3] [µL/min/mg]	IC50 [4] [µM]	IC50 [5] [µM]	inhibition at 10 µM (hERG (KCNH2) [7]) [%]	further results
C[C@@H](C(=O)Nc1ccc(Cl)cc1)[C@H]1CC[C@@H](c2ccnc3ccc(F)cc32)CC1	21.3	386	–	–	–	AUC(0-t) at 8 h [1]: 9.3 µM·h
NS(=O)(=O)NCCCNC(=O)/C(=N/O)Nc1ccc(F)c(Cl)c1	–	–	1.2	–	–	IC50 [6]: 10.3 µM
O=C(Nc1ccc(Cl)cn1)C(=O)N1CCC(c2ccnc(C(F)(F)F)c2Cl)CC1	3.5	36	0.301	22	–	–
O=C(Nc1ccc(Cl)cc1)C(=O)N1CCC2(CC1)COc1cc(C(F)(F)F)ccc12	< 1	14	–	21	86	–
O=C(Nc1ccc(Cl)cn1)C(=O)N1CCC(c2cccc(Cl)c2Cl)CC1	40	77	0.245	–	–	–
CS(=O)(=O)NCCCNC(=O)/C(=N/O)Nc1ccc(F)c(Br)c1	–	–	0.34	–	–	IC50 [6]: 5 µM
O=C(/C(=N/O)Nc1ccc(F)c(Cl)c1)N1CCC(c2ccccc2)CC1	–	–	14	–	–	IC50 [6]: > 60 µM
O=C(Nc1ccc(F)c(Cl)c1)C(=O)N1CCC(c2ccccc2)CC1	–	–	1.8	–	–	IC50 [6]: > 60 µM; ΔTm [8]: 1 °C
O=C(Nc1ccc(Cl)cc1)C(=O)N1CCC(c2ccnc3ccc(F)cc23)CC1	9	97	–	6.9	64	inhibition at 10 µM (hERG (KCNH2) [9]): 70%; AUC(0-t) at 8 h [1]: 19.3 µM·h; fraction unbound [10]: 0.003; Cmax [11]: 5.1 µM; fraction unbound [12]: 0.011; half-life [13]: 1.8 h; IC50 (Cytochrome P450 2C9): 6.1 µM; IC50 (Cytochrome P450 2D6): > 10 µM; ΔTm [8]: 14 °C; IC50 (Cytochrome P450 2C8): 4.7 µM
O=C(Nc1ccc(Cl)cn1)C(=O)N1CCC(c2ccnc3ccnn23)CC1	–	–	0.433	–	–	–
O=C(Nc1ccc(Cl)cn1)C(=O)N1CCC2(CC1)COc1ccccc12	–	–	0.49	–	–	–
O=C(Nc1ccc(Cl)cc1)C(=O)N1CCCC2(CC1)COc1cc(C(F)(F)F)ccc12 (centres undefined)	–	–	0.7	37	–	–
O=C(Nc1ccc(Cl)cc1)C(=O)N1CC[C@@H](c2ccnc3ccc(F)cc23)[C@@H](O)C1 (stereo in doubt)	–	–	3	37	–	–
NC(=O)/C(=N/O)Nc1ccc(F)c(Cl)c1	–	–	24	–	–	IC50 [6]: 78 µM

Continued, in another order:

microsomal CLint [2] [µL/min/mg]	microsomal CLint [3] [µL/min/mg]	IC50 [4] [µM]	IC50 [5] [µM]	SMILES	inhibition at 10 µM (hERG (KCNH2) [7]) [%]	further results
10	108	0.007	6.7	O=C(Nc1ccc(Cl)cc1F)C(=O)N1CCC(c2ccnc3ccc(F)cc23)CC1	–	–
20	167	0.03	30	O=C(Nc1ccc(Cl)cc1)C(=O)N1CCC2(CC1)COc1cc(C(F)F)ccc12	71	–
–	–	0.09	–	O=C(Nc1ccc(Cl)cc1)C(=O)N1CCC(c2ccccc2)CC1	–	IC50 [6]: > 60 µM; ΔTm [8]: 12 °C
5	18	0.05	15.3	O=C(Nc1ccc(Cl)cc1)C(=O)N1CC[C@@H](c2ccnc3ccc(F)cc23)[C@H](O)C1 (stereo in doubt)	10	–
–	–	0.118	6.1	N#Cc1ccc2nccc(C3CCN(C(=O)C(=O)Nc4ccc(Cl)cc4)CC3)c2c1	–	–
5.5	16	0.09	9.5	O=C(Nc1ccc(C(F)(F)F)cc1)C(=O)N1CCC(c2ccnc3ccc(F)cc23)CC1	77	–
6	63	0.073	6.4	O=C(Nc1ccc(Cl)cn1)C(=O)N1CCC2(CC1)COc1cc(C(F)(F)F)ccc12	–	–
26	55	0.019	–	O=C(Nc1ccc(Cl)cc1)C(=O)N1CCC(c2ccnc3cc(F)ccc23)CC1	85	–
108	202	0.008	5.9	O=C(Nc1ccc(Cl)cc1F)C(=O)N1CCCC(c2ccnc3ccc(F)cc23)CC1 (racemic)	66	–
28.8	72.9	0.023	4.5	CC1(C)CN(C(=O)C(=O)Nc2ccc(Cl)cc2)CCC1c1ccnc2ccc(F)cc12 (racemic)	71	–
11.6	52	0.009	6.3	O=C(Nc1ccc(Cl)cc1)C(=O)N1CCC(c2ccnc3ccc(F)cc23)C(F)(F)C1 (racemic)	15	–
–	–	0.11	17.2	O=C(Nc1ccc(Cl)cc1)C(=O)N1CC[C@H](c2ccnc3ccc(F)cc23)[C@H](O)C1 (stereo in doubt)	–	–
23	112	0.07	5.9	O=C(Nc1ccc(Cl)cn1)C(=O)N1CCC(c2ccnc3ccc(F)cc23)CC1	–	–
11	72	0.019	2.5	O=C(Nc1ccc(Cl)cc1)C(=O)N1CCC(c2ccnc3ccc(Cl)cc23)CC1	–	–
4	17	0.0061	14	O=C(Nc1ccc(Cl)cc1)C(=O)N1CC[C@H](c2ccnc3ccc(F)cc23)[C@@H](O)C1 (stereo in doubt)	18	inhibition at 10 µM (hERG (KCNH2) [9]): 34%; IC50 [14]: 0.33 µM; AUC(0-t) at 8 h [1]: 27.1 µM·h; fraction unbound [10]: 0.011; Cmax [11]: 10 µM; fraction unbound [12]: 0.02; half-life [13]: 1.4 h; ΔTm [8]: 13 °C; IC50 (Cytochrome P450 2C8): 9.5 µM
98	254	0.005	16	O=C(Nc1ccc(Cl)cc1F)C(=O)N1CCC=C(c2ccnc3ccc(F)cc23)CC1	–	–
17	76	0.021	5.8	O=C(Nc1ccc(C(F)F)cc1)C(=O)N1CCC(c2ccnc3ccc(F)cc23)CC1	–	–
11	28	0.036	5.5	N#Cc1ccc(NC(=O)C(=O)N2CCC(c3ccnc4ccc(F)cc34)CC2)cc1	61	–
